Columns and labels:
Format in all cases: cell-based
[1] = biological target: T1, Protein cereblon/Androgen receptor (Homo sapiens) (UniProt P10275+Q96SW2); experiment: Protac activity at CRBN/AR in human MCF7 cells assessed as induction of AR protein degradation incubated for 8 to 24 hrs by western blot analysis; conditions: time hrs 8-24
[2] = biological target: T2, Protein cereblon/Estrogen receptor (Homo sapiens) (UniProt P03372+Q96SW2); experiment: Protac activity at CRBN/ERalpha in human MCF7 cells assessed as induction of ERalpha protein degradation incubated for 8 to 24 hrs by western blot analysis; conditions: time hrs 8-24
T2 sequence (P03372 whole entry, looked up): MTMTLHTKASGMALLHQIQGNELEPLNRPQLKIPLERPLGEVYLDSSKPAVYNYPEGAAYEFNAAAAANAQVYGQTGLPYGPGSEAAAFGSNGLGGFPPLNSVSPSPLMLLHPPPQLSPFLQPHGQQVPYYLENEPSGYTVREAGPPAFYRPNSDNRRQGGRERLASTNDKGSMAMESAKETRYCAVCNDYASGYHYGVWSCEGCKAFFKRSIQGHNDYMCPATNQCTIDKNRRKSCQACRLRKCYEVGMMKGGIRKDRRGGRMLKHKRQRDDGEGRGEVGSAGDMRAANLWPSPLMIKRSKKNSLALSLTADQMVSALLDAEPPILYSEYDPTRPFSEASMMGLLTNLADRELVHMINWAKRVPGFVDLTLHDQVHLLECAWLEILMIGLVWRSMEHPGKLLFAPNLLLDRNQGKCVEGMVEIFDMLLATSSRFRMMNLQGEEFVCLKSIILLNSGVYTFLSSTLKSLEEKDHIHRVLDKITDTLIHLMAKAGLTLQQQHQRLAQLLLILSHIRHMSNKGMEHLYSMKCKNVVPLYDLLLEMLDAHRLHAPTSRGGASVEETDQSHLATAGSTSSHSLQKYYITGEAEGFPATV
T2 sequence (Q96SW2 whole entry, looked up): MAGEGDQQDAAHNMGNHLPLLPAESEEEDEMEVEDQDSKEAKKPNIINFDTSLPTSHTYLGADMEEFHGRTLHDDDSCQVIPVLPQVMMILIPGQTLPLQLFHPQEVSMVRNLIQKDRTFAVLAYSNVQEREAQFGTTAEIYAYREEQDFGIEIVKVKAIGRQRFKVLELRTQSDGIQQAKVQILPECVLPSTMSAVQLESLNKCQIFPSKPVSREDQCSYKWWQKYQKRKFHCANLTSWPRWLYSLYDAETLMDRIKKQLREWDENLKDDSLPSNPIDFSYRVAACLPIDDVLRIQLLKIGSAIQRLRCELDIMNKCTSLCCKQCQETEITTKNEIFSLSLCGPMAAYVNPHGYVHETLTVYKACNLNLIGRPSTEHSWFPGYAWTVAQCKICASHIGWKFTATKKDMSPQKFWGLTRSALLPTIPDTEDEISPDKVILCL

[3] = biological target: T1, Protein cereblon/Androgen receptor (Homo sapiens); experiment: Protac activity at CRBN/AR in human MCF7 cells assessed as induction of AR protein degradation by measuring AR protein level at 10 uM incubated for 8 hrs by western blot analysis relative to lamin B
[4] = biological target: T1, Protein cereblon/Androgen receptor (Homo sapiens); experiment: Protac activity at CRBN/AR in human MCF7 cells assessed as induction of AR protein degradation by measuring AR protein level at 5 uM incubated for 8 hrs by western blot analysis relative to lamin B
[5] = biological target: T1, Protein cereblon/Androgen receptor (Homo sapiens); experiment: Protac activity at CRBN/AR in human MCF7 cells assessed as induction of AR protein degradation by measuring AR protein level at 20 uM incubated for 8 hrs by western blot analysis relative to lamin B
[6] = biological target: T2, Protein cereblon/Estrogen receptor (Homo sapiens); experiment: Protac activity at CRBN/ERalpha in human MCF7 cells assessed as induction of ERalpha protein degradation by measuring ERalpha protein level at 5 uM incubated for 8 hrs by western blot analysis relative to lamin B
[7] = biological target: T2, Protein cereblon/Estrogen receptor (Homo sapiens); experiment: Protac activity at CRBN/ERalpha in human MCF7 cells assessed as induction of ERalpha protein degradation by measuring ERalpha protein level at 10 uM incubated for 8 hrs by western blot analysis relative to lamin B
[8] = biological target: T2, Protein cereblon/Estrogen receptor (Homo sapiens); experiment: Protac activity at CRBN/ERalpha in human MCF7 cells assessed as induction of ERalpha protein degradation by measuring ERalpha protein level at 20 uM incubated for 8 hrs by western blot analysis relative to lamin B
[9] = biological target: T1, Protein cereblon/Androgen receptor (Homo sapiens); experiment: Protac activity at CRBN/AR in human MCF7 cells assessed as induction of AR protein degradation by measuring AR protein level at 5 uM incubated for 24 hrs by western blot analysis relative to lamin B
[10] = biological target: T1, Protein cereblon/Androgen receptor (Homo sapiens); experiment: Protac activity at CRBN/AR in human MCF7 cells assessed as induction of AR protein degradation by measuring AR protein level at 10 uM incubated for 24 hrs by western blot analysis relative to lamin B
[11] = biological target: T1, Protein cereblon/Androgen receptor (Homo sapiens); experiment: Protac activity at CRBN/AR in human MCF7 cells assessed as induction of AR protein degradation by measuring AR protein level at 20 uM incubated for 24 hrs by western blot analysis relative to lamin B
[12] = biological target: T2, Protein cereblon/Estrogen receptor (Homo sapiens); experiment: Protac activity at CRBN/ERalpha in human MCF7 cells assessed as induction of ERalpha protein degradation by measuring ERalpha protein level at 5 uM incubated for 24 hrs by western blot analysis relative to lamin B
[13] = biological target: T2, Protein cereblon/Estrogen receptor (Homo sapiens); experiment: Protac activity at CRBN/ERalpha in human MCF7 cells assessed as induction of ERalpha protein degradation by measuring ERalpha protein level at 10 uM incubated for 24 hrs by western blot analysis relative to lamin B
[14] = biological target: T2, Protein cereblon/Estrogen receptor (Homo sapiens); experiment: Protac activity at CRBN/ERalpha in human MCF7 cells assessed as induction of ERalpha protein degradation by measuring ERalpha protein level at 20 uM incubated for 24 hrs by western blot analysis relative to lamin B
[15] = biological target: T3, Protein cereblon/Aryl hydrocarbon receptor (Homo sapiens, UniProt P35869+Q96SW2); experiment: Protac activity at CRBN/AhR in human MCF7 cells assessed as induction of AhR protein degradation by measuring AhR protein level at 5 uM incubated for 8 hrs by western blot analysis relative to lamin B; conditions: mcf7, 8 h
T3 sequence (P35869 whole entry): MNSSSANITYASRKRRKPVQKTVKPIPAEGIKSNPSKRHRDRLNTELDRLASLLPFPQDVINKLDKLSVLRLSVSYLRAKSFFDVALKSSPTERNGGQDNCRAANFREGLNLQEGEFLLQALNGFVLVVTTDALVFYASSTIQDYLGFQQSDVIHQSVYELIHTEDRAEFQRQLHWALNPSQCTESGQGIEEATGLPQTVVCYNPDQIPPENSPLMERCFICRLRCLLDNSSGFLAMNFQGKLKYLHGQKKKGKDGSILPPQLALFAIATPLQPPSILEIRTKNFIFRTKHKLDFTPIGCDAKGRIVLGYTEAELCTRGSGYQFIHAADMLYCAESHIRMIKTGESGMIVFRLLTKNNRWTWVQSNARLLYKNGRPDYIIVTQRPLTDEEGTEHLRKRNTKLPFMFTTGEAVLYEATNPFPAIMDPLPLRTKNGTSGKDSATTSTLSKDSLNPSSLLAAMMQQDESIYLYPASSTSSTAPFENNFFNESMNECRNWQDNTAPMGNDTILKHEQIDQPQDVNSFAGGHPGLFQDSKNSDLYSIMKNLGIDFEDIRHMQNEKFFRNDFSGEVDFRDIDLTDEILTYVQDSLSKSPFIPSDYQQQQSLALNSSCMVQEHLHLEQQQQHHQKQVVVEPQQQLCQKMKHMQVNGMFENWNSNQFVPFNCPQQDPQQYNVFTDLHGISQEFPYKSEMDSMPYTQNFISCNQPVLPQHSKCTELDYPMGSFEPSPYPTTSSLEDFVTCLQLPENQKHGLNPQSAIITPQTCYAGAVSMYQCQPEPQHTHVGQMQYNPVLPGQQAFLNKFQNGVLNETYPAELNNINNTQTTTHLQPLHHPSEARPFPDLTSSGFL
T3 sequence (Q96SW2 whole entry): as the sequence (Q96SW2 whole entry, looked up) above

[16] = biological target: T3, Protein cereblon/Aryl hydrocarbon receptor; experiment: Protac activity at CRBN/AhR in human MCF7 cells assessed as induction of AhR protein degradation by measuring AhR protein level at 10 uM incubated for 8 hrs by western blot analysis relative to lamin B; conditions: mcf7, 8 h
[17] = biological target: T3, Protein cereblon/Aryl hydrocarbon receptor; experiment: Protac activity at CRBN/AhR in human MCF7 cells assessed as induction of AhR protein degradation by measuring AhR protein level at 20 uM incubated for 8 hrs by western blot analysis relative to lamin B; conditions: mcf7, 8 h
[18] = biological target: T3, Protein cereblon/Aryl hydrocarbon receptor; experiment: Protac activity at CRBN/AhR in human MCF7 cells assessed as induction of AhR protein degradation by measuring AhR protein level at 5 uM incubated for 24 hrs by western blot analysis relative to lamin B; conditions: mcf7, 24 h
[19] = biological target: T3, Protein cereblon/Aryl hydrocarbon receptor; experiment: Protac activity at CRBN/AhR in human MCF7 cells assessed as induction of AhR protein degradation by measuring AhR protein level at 10 uM incubated for 24 hrs by western blot analysis relative to lamin B; conditions: mcf7, 24 h
[20] = biological target: T3, Protein cereblon/Aryl hydrocarbon receptor; experiment: Protac activity at CRBN/AhR in human MCF7 cells assessed as induction of AhR protein degradation by measuring AhR protein level at 20 uM incubated for 24 hrs by western blot analysis relative to lamin B; conditions: mcf7, 24 h
[21] = biological target: T1, Protein cereblon/Androgen receptor (Homo sapiens); experiment: Protac activity at CRBN/AR in human MCF7 cells assessed as induction of AR protein degradation by measuring AR protein level at 20 uM incubated for 8 hrs in presence of proteasome inhibitor, MG132 by western blot analysis relative to lamin B
[22] = biological target: T1, Protein cereblon/Androgen receptor (Homo sapiens); experiment: Protac activity at CRBN/AR in human MCF7 cells assessed as induction of AR protein degradation by measuring AR protein level at 20 uM incubated for 8 hrs in presence of ubiquitin activating inhibitor MLN7243 by western blot analysis relative to lamin B
[23] = biological target: T2, Protein cereblon/Estrogen receptor (Homo sapiens); experiment: Protac activity at CRBN/ERalpha in human MCF7 cells assessed as induction of ERalpha protein degradation by measuring ERalpha protein level at 20 uM incubated for 8 hrs in presence of proteasome inhibitor, MG132 by western blot analysis relative to lamin B
[24] = biological target: T2, Protein cereblon/Estrogen receptor (Homo sapiens); experiment: Protac activity at CRBN/ERalpha in human MCF7 cells assessed as induction of ERalpha protein degradation by measuring ERalpha protein level at 20 uM incubated for 8 hrs in presence of ubiquitin activating inhibitor MLN7243 by western blot analysis relative to lamin B
[25] = biological target: T3, Protein cereblon/Aryl hydrocarbon receptor; experiment: Protac activity at CRBN/AhR in human MCF7 cells assessed as induction of AhR protein degradation by measuring AhR protein level at 20 uM incubated for 8 hrs in presence of proteasome inhibitor, MG132 by western blot analysis relative to lamin B; conditions: mcf7, 8 h
[26] = biological target: T3, Protein cereblon/Aryl hydrocarbon receptor; experiment: Protac activity at CRBN/AhR in human MCF7 cells assessed as induction of AhR protein degradation by measuring AhR protein level at 20 uM incubated for 8 hrs in presence of ubiquitin activating inhibitor MLN7243 by western blot analysis relative to lamin B; conditions: mcf7, 8 h
[27] = biological target: T1, Protein cereblon/Androgen receptor (Homo sapiens); experiment: Protac activity at CRBN/AR in CRBN siRNA-transfected human MCF7 cells assessed as induction of AR protein degradation by measuring AR protein level at 20 uM incubated for 8 hrs by western blot analysis relative to lamin B
[28] = biological target: T2, Protein cereblon/Estrogen receptor (Homo sapiens); experiment: Protac activity at CRBN/ERalpha in CRBN siRNA-transfected human MCF7 cells assessed as induction of ERalpha protein degradation by measuring ERalpha protein level at 20 uM incubated for 8 hrs by western blot analysis relative to lamin B

T1 sequence (P10275 whole entry, looked up): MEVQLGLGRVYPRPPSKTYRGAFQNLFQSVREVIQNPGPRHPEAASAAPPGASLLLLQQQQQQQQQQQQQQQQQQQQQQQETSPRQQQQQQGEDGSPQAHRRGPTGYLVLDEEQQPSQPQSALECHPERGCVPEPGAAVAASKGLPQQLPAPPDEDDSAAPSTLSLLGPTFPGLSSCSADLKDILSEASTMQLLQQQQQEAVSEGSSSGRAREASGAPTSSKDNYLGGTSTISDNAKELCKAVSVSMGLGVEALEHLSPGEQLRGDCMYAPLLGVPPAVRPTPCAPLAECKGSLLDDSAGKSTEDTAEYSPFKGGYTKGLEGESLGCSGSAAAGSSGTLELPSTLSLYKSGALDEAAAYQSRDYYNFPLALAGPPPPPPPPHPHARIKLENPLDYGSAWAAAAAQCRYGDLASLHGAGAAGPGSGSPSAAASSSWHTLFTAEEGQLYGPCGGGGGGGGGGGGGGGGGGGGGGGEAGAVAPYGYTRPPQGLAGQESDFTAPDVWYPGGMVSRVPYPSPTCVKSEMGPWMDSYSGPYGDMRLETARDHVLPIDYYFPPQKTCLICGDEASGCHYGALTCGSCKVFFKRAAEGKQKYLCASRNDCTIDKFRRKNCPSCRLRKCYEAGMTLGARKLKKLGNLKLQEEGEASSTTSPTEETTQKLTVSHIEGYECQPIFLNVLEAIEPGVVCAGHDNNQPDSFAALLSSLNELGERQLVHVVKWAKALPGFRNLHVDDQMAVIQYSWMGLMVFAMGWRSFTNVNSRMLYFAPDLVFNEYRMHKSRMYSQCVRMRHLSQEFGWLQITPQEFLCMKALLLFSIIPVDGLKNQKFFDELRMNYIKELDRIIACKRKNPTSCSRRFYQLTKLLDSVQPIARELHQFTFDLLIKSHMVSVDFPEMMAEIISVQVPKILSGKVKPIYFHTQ
T1 sequence (Q96SW2 whole entry, looked up): as the sequence (Q96SW2 whole entry, looked up) above

- Activity [1]: Dose-dependent effect
- Activity [2]: Dose-dependent effect
- Activity [3]: 80%
- Activity [4]: 97%
- Activity [5]: 51%
- Activity [6]: 108%
- Activity [7]: 85%
- Activity [8]: 57%
- Activity [9]: 84%
- Activity [10]: 89%
- Activity [11]: 79%
- Activity [12]: 85%
- Activity [13]: 64%
- Activity [14]: 51%
- Activity [15]: 124%
- Activity [16]: 123%
- Activity [17]: 115%
- Activity [18]: 101%
- Activity [19]: 111%
- Activity [20]: 133%
- Activity [21]: 92%
- Activity [22]: 119%
- Activity [23]: 78%
- Activity [24]: 117%
- Activity [25]: 123%
- Activity [26]: 107%
- Activity [27]: 93%
- Activity [28]: 93%
SMILES: CC[C@H](C)[C@@H]1NC(=O)[C@H](NC(=O)[C@@H](N)CCCCNC(=O)CCOCCOCCOCCOCCOCCNc2cccc3c2C(=O)N(C2CCC(=O)NC2=O)C3=O)CSSC[C@@H](C(=O)N[C@@H](CCCNC(=N)N)C(=O)N[C@@H](CC(C)(C)C)C(=O)N[C@@H](CC(C)C)C(=O)N[C@@H](CCC(N)=O)C(=O)NCC(=O)NCC(=O)NCC(=O)N[C@@H](CCCNC(=N)N)C(=O)N[C@@H](CCCNC(=N)N)C(=O)N[C@@H](CCCNC(=N)N)C(=O)N[C@@H](CCCNC(=N)N)C(=O)N[C@@H](CCCNC(=N)N)C(=O)N[C@@H](CCCNC(=N)N)C(=O)N[C@@H](CCCNC(=N)N)C(N)=O)NC(=O)[C@H](CC(C)C)NC1=O (stereo partly drawn)
